Source: ChEMBL document CHEMBL5385926, “Production of Kinanthraquinone D with Antimalarial Activity by Heterologous Gene Expression and Biotransformation in Streptomyces lividans TK23” (J Nat Prod, 2024)
Where “and” joins values, the source holds several entries; their conditions need not be identical. Equal values may be shown once.

What was measured:
[1] = Cytotoxicity against human HL-60 cells; format: toxicity, cell-based
[2] = Cytotoxicity against human HeLa cells; format: toxicity, cell-based
Staphylococcus aureus = experiment: Antimicrobial activity against Staphylococcus aureus 209; format: functional, organism-based
Plasmodium falciparum = experiment: Antimalarial activity against Plasmodium falciparum 3D7; format: functional, organism-based

Row | SMILES | IC50 [1] | IC50 [2] | IC50 (Staphylococcus aureus) | IC50 (Plasmodium falciparum)
1 | COc1ccc2c(c1OC)C(=O)c1ccc(/C=C(/C)CC(N)=O)c(O)c1C2=O | > 30 µM and > 11.4 µg/mL | > 30 µM and > 11.4 µg/mL | > 30 µM and > 11.4 µg/mL | 1.21 µM and 0.5 µg/mL
2 | COc1ccc2c(c1OC)C(=O)c1ccc(/C=C(/C)CC(=O)O)c(O)c1C2=O | > 30 µM and > 11.5 µg/mL | > 30 µM and > 11.5 µg/mL | 18 µM and 6.9 µg/mL | 15 µM and 5.7 µg/mL
3 | COc1ccc2c(c1OC)C(=O)c1ccc(/C=C(/C)CC(=O)NCC(=O)O)c(O)c1C2=O | > 30 µM and > 13.2 µg/mL | > 30 µM and > 13.2 µg/mL | > 30 µM and > 13.2 µg/mL | > 30 µM and > 13.2 µg/mL
4 | COc1ccc2c(c1OC)C(=O)c1c(O)cc(/C=C(/C)CC(N)=O)c(O)c1C2=O | > 30 µM and > 11.9 µg/mL | > 30 µM and > 11.9 µg/mL | > 30 µM and > 11.9 µg/mL | 910 nM and 0.4 µg/mL
